Test results as given in patent publication US20220348558A1, “INHIBITORS OF ENCEPHALITIC ALPHAVIRUSES” (priority 2019, published 2022).
Like-named read-outs stand apart in the source and are kept apart here.

Experiments:
[1] = system: VEEV TC83; experiment: microbe, parasite or virus in culture; type: cell-based; conditions: Venezuelan equine encephalitis virus, Vero 76, 48 h, read-out: VEEV TC83 EC50 nM
[2] = system: WEEV California; experiment: microbe, parasite or virus in culture; type: cell-based; conditions: Western equine encephalitis virus, Vero 76, 48 h, read-out: WEEV California EC50 nM
[3] = system: EEEV FL93-939; experiment: microbe, parasite or virus in culture; type: cell-based; conditions: Eastern equine encephalitis virus, Vero 76, 48 h, read-out: EEEV FL93-939 EC50
[4] = system: EEEV BeAr 436087; experiment: microbe, parasite or virus in culture; type: cell-based; conditions: Eastern equine encephalitis virus, Vero 76, 48 h, read-out: EEEV BeAr 436087 EC50 nM
[5] = system: VEEV TrD; set-up: species or system BALB/C mice; conditions: mouse, in vivo
[6] = system: EEEV FL93-939; set-up: species or system C57BL/6 mice; conditions: mouse, in vivo

SMILES	EC50 [1]	EC50 [2]	EC50 [3]	EC50 [4]	day 14 % survival [5]	survival rate ([5]; 12 mg/kg/day)	survival rate ([5]; 24 mg/kg/day)	survival rate ([5]; 48 mg/kg/day)	% survival on day 21 ([6]; 12 mg/kg/day)	% survival on day 21 ([6]; 25 mg/kg/day)	% survival on day 21 ([6]; 50 mg/kg/day)	melting point
COc1ccc(-n2c([C@H]3CCCN3)nc3c(-c4cccnc4)cc(C#N)cc3c2=O)cc1F [Example 107, (R)-3-(3-fluoro-4-methoxyphenyl)-4-oxo-8-(pyridin-3-yl)-2-(pyrrolidin-2-yl)-3,4-dihydroquinazoline-6-carbonitrile]	1 to 50 nM	1 to 50 nM	51 to 150 nM	1 to 50 nM	–	–	–	–	–	–	–	–
COc1ccc(-n2c([C@H]3C[C@H](F)CN3)nc3c(-c4cccnc4)cc([N+](=O)[O-])cc3c2=O)cc1 [Example 86, 2-((2R,4S)-4-fluoropyrrolidin-2-yl)-3-(4-methoxyphenyl)-6-nitro-8-(pyridin-3-yl) quinazolin-4 (3H)-one]	1 to 50 nM	1 to 50 nM	51 to 150 nM	51 to 150 nM	–	–	–	–	–	–	–	–
COc1ccc(-n2c([C@H]3CCCN3)nc3c(C)cc([N+](=O)[O-])cc3c2=O)cc1 [Example 55, (R)-3-(4-methoxyphenyl)-8-methyl-6-nitro-2-(pyrrolidin-2-yl) quinazolin-4 (3H)-one]	1 to 50 nM	1 to 50 nM	51 to 150 nM	51 to 150 nM	100%	75%	75%	100%	30%	60%	70%	–
COc1ccc(-n2c([C@@H]3CCCN3C)nc3c(C)cc([N+](=O)[O-])cc3c2=O)cc1 [Example 58, (S)-3-(4-methoxyphenyl)-8-methyl-2-(1-methylpyrrolidin-2-yl)-6-nitroquinazolin-4 (3H)-one]	1 to 50 nM	1 to 50 nM	51 to 150 nM	51 to 150 nM	–	–	–	–	–	–	–	–
COc1ccc(-n2c([C@H]3CCCN3C)nc3c(C)cc([N+](=O)[O-])cc3c2=O)cc1 [Example 57, (R)-3-(4-methoxyphenyl)-8-methyl-2-(1-methylpyrrolidin-2-yl)-6-nitroquinazolin-4 (3H)-one]	51 to 150 nM	151 to 500 nM	51 to 150 nM	51 to 150 nM	–	–	–	–	–	–	–	–
COc1ccc(-n2c([C@H]3CCCN3C)nc3ccc([N+](=O)[O-])cc3c2=O)cc1 [Example 10, (R)-3-(4-methoxyphenyl)-2-(1-methylpyrrolidin-2-yl)-6-nitroquinazolin-4 (3H)-one]	1 to 50 nM	151 to 500 nM	151 to 500 nM	51 to 150 nM	–	–	–	–	–	–	–	–
COc1ccc(-n2c([C@H]3CCCN3)nc3c(C)cc([N+](=O)[O-])cc3c2=O)cc1F [Example 59]	1 to 50 nM	1 to 50 nM	51 to 150 nM	51 to 150 nM	–	–	–	–	–	–	–	–
COc1ccc(-n2c([C@H]3CCCN3)nc3c(-c4ccc(F)nc4)cc([N+](=O)[O-])cc3c2=O)cc1F [Example 89, (R)-3-(3-fluoro-4-methoxyphenyl)-8-(6-fluoropyridin-3-yl)-6-nitro-2-(pyrrolidin-2-yl) quinazolin-4 (3H)-one]	1 to 50 nM	1 to 50 nM	51 to 150 nM	51 to 150 nM	–	–	–	–	–	–	–	–
COc1ccc(-n2c(C3CCCN3)nc3c(-c4ccc(C)nc4)cc(C#N)cc3c2=O)cc1F (centres unmarked) [Example 101, 3-(3-fluoro-4-methoxyphenyl)-8-(6-methylpyridin-3-yl)-4-oxo-2-(pyrrolidin-2-yl)-3,4-dihydroquinazoline-6-carbonitrile]	1 to 50 nM	1 to 50 nM	51 to 150 nM	51 to 150 nM	–	–	–	–	–	–	–	–
COc1ccc(-n2c([C@H]3CCCN3)nc3c(-c4ccc(C(F)(F)F)nc4)cc(C#N)cc3c2=O)cc1F [Example 100, (R)-3-(3-fluoro-4-methoxyphenyl)-4-oxo-2-(pyrrolidin-2-yl)-8-(6-(trifluoromethyl)pyridin-3-yl)-3,4-dihydroquinazoline-6-carbonitrile]	1 to 50 nM	1 to 50 nM	51 to 150 nM	51 to 150 nM	–	–	–	–	–	–	–	–
COc1ccc(-n2c([C@H]3CCNC3)nc3ccc([N+](=O)[O-])cc3c2=O)cc1 [Example 18, (S)-3-(4-methoxyphenyl)-6-nitro-2-(pyrrolidin-3-yl) quinazolin-4 (3H)-one]	1 to 50 nM	151 to 500 nM	151 to 500 nM	51 to 150 nM	–	–	–	–	–	–	–	–
COc1ccc(-n2c([C@H]3C[C@H](F)CN3)nc3c(C)cc([N+](=O)[O-])cc3c2=O)cc1 [Example 61, 2-((2R,4S)-4-fluoropyrrolidin-2-yl)-3-(4-methoxyphenyl)-8-methyl-6-nitroquinazolin-4 (3H)-one]	1 to 50 nM	51 to 150 nM	51 to 150 nM	51 to 150 nM	–	–	–	–	–	–	–	183.06 to 185.34 °C
